Results on 16 molecules are retold here after patent publication US4243668A, “Octahydro-1H-benzo[4,5]furo[3,2-e]-isoquinoline analgesic and narcotic antagonistic compounds” (priority 1979, dated 1981).

Assay [1] has as its system induction of Straub tail in mice by a highly addicting agonist such as morphine. To be noted: Blumberg et al. 1968; cited from earlier work.
The conditions of assay [2]: cited from earlier work; for intrinsic analgesic activity, in words: background statement.
Assay [3] concerns pain induced by phenylquinone. As to the kind of experiment: phenylquinone writhing test (oral anti-PQW), analgesic activity. Format: in vivo, female white mice. To be noted: Mus musculus, po, mice, oral, phenylquinone writhing, ED50; read-out: EFFECT ED50 Oral Anti-PQW. On the procedure:
A standard procedure for detecting and comparing the analgesic activity of compounds in this series for which there is good correlation with human efficacy is the standard phenylquinone writhing test modified from Siegmund, et al., Proc. Soc. Exp. Biol. Med., 95, 729 (1957). A test compound suspended in 1% methocel® was given orally to fasted (17-21 hours) female white mice, 5-20 animals per double blind test. Aqueous (0.01% phenyl-p-benzoquinone) phenylquinone was injected intraperitoneally at 24 minutes later using 0.20 ml per mouse. […] The effective analgesic dose for 50% of the mice (ED50) was calculated by the moving average method of Thompson, W. R., Bact. Rev., 11, 115-145 (1947).
For orientation: Writhing tests count abdominal constrictions after an irritant is injected.

The subject of another assay is Straub tail. The experiment in a line: Straub tail reaction (oral), narcotic agonist effect. Format: in vivo, CF1 S female mice. To be noted: Mus musculus, mice. On the procedure:
Narcotic analgesics produce in mice an erection and arching of the tail (90° or more) which is referable to spinal cord stimulation. This Straub tail reaction is not produced by other analgesics, including the narcotic antagonists.
The method used was modified from Shemano, I., and Wendel, H., Tox. Appl. Pharm., 6, 334-9 (1964). CF1 S female mice (18-21 g), 10-20 mice per dose, were intubated with log scaled doses of analgesic in 1% aqueous methylcellulose. A positive Straub tail response was recorded if a tail was erected 90° or more for 5 seconds at any time within 24 minutes after dosing. A quantal Straub tail ED50 was calculated by the moving average method [Thompson, W. R., Bact. Rev., 11, 115-145 (1947)].

Assay [4] relates to induction of Straub tail in mice by a highly addicting agonist such as morphine. As to the kind of experiment: anti-Straub tail test, antagonism of morphine-induced Straub tail (narcotic antagonism). Format: in vivo, Female CF1 S mice. To be noted: Mus musculus, mice, vs morphine sulfate 30 mg/kg i.p.
Setting [5] is: sc, s.c., read-out: EFFECT ED50 subcutaneous(s.c.) Anti-Straub Tail.

Where two headings read alike, the source gives them in different places.

For the molecule `C=CCN1CC[C@]23c4c5ccc(O)c4O[C@H]2[C@@H](O)C=C[C@H]3[C@H]1C5` [nalorphine], the “prevention of morphine-induced Straub tail, in words” value in assay [1] is recorded as “prevent the induction of Straub tail in mice”. Also, the “intrinsic analgesic activity, in words” value in assay [2] is recorded as “some analgesic effects”. In addition, the “analgetic properties in man, in words” value in assay [2] (in man, Lasagna and Beecher 1954) is listed as “analgetic properties in man”.
As to `C=CCN1CC[C@]23c4c5ccc(O)c4O[C@H]2C(=O)CC[C@@]3(O)[C@H]1C5` [naloxone], the “prevention of morphine-induced Straub tail, in words” value in assay [1] is “prevent the induction of Straub tail in mice”.
By ED50 is commonly meant the dose that gives a 50% effect, or the effect in half of the subjects. On to `CCCN1CC[C@]23c4cccc(OC)c4O[C@H]2CCC[C@H]3C1` (relative stereo) [Example 21], for which the 50% effective dose (ED50) in assay [3] is 78 mg/kg; with Straub tail it was greater than 135 mg/kg; in assay [4] (setting [5]) it was 0.08 mg/kg.
Turning to `COc1cccc2c1O[C@H]1CCC[C@H]3CN(CC4CC4)CC[C@@]231` (relative stereo) [Example 4, 3-Cyclopropylmethyl-9-methoxy-2,3,4,4aα,5,6,7,7aα-octahydro-1H-benzo[4,5]furo[3,2-e]isoquinoline], the ED50 was 19.7 mg/kg in assay [3]; greater than 135 mg/kg in the assay on Straub tail; 0.31 mg/kg in assay [4] (ip, i.p., read-out: EFFECT ED50 Intraperitoneal(i.p.) Anti-Straub Tail).
As for `CCCCN1CCC23c4cccc(O)c4OC2CCCC3C1` (centres unmarked) [Example 24], the figures for the ED50 (in assay [3]; in the assay on Straub tail; in assay [4] (setting [5])) were 23 mg/kg, greater than 135 mg/kg and 0.032 mg/kg, respectively.
With `COc1cccc2c1OC1CCCC3CN(CCc4ccc(C)cc4)CCC231` (centres unmarked) [Example 35], the ED50 in assay [3] was determined as 1.7 mg/kg; with Straub tail it was 52 mg/kg; in assay [4] (setting [5]), 56 mg/kg.
In the case of `CCCCCN1CCC23c4cccc(OC)c4OC2CCCC3C1` (centres unmarked) [Example 25], the ED50 was 6.2 mg/kg in assay [3], 57 mg/kg with Straub tail and greater than 27 mg/kg in assay [4] (setting [5]).
For `Oc1cccc2c1O[C@H]1CCC[C@H]3CNCC[C@@]231` (relative stereo) [Example 13, 2,3,4,4aα,5,6,7,7aα-octahydro-1H-benzo[4,5]furo[3,2-e]isoquinol in-9-ol] the same measures were 15 mg/kg, greater than 135 mg/kg and greater than 27 mg/kg.
For `COc1cccc2c1OC1CCCC3CN(Cc4cccs4)CCC231` (centres unmarked) [Example 41] the same measures were 48 mg/kg, greater than 135 mg/kg and greater than 27 mg/kg.
`CC(C)CN1CCC23c4cccc(O)c4OC2CCCC3C1` (centres unmarked) [Example 32]: the values for the ED50 (in assay [3]; with Straub tail; in assay [4] (setting [5])) were 63 mg/kg, greater than 135 mg/kg and 0.03 mg/kg, respectively.
Regarding `CCN1CC[C@]23c4cccc(OC)c4O[C@H]2CCC[C@H]3C1` (relative stereo) [Example 14a, 3-ethyl-9-methoxy-2,3,4,4aα,5,6,7,7aα-octahydro-1H-benzo[4,5]furo[3,2-e] isoquinoline], the results for the ED50 (in assay [3]; in the assay on Straub tail; in assay [4] (setting [5])) were 63 mg/kg, greater than 135 mg/kg and 0.71 mg/kg, respectively.
For `CC(C)CCN1CC[C@]23c4cccc(O)c4O[C@H]2CCC[C@H]3C1` (relative stereo) [Example 19, 3-(3'-Methylbutyl)-2,3,4,4aα,5,6,7,7aα-octahydro-1H-benzo[4,5]furo[3,2-e]isoquinolin-9-ol], the ED50 in assay [3] was 33 mg/kg; in the assay with Straub tail it was greater than 135 mg/kg; in assay [4] (setting [5]), 0.64 mg/kg.
In the case of `CC(C)=CCN1CCC2(C)c3cc(O)ccc3CC1C2C` (centres unmarked) [Pentazocine, reference compound], the ED50 is 56 mg/kg in assay [3], greater than 135 mg/kg in the assay on Straub tail and 4 mg/kg in assay [4] (setting [5]).
For `Oc1cccc2c1OC1CCCC3CN(CC4CCCCC4)CCC231` (centres unmarked) [Example 34] the same measures were 23 mg/kg, greater than 135 mg/kg and greater than 27 mg/kg.
With `C=CCN1CC[C@]23CCCC[C@H]2[C@H]1Cc1ccc(O)cc13` [levallorphan], the “intrinsic analgesic activity, in words” value in assay [2] is on record as “some analgesic effects”.
As to `CCCCCN1CCC23c4cccc(O)c4OC2CCCC3C1` (centres unmarked) [Example 26], the ED50 in assay [3] was 5.3 mg/kg; in the assay with Straub tail it was 37 mg/kg; in assay [4] (setting [5]), greater than 27 mg/kg.
